Laboratory results: patent publication US8987217B2, “Modified saponins for the treatment of fungal infections” (The General Hospital Corporation, priority 2010, dated 2015)
Values after ≈ are worked out from the molar mass of the structure shown. “Also recorded” adds a separate entry of the source. Read-outs that look alike come from different tables or passages of the source.

What was measured:
[1] = tested on: C. albicans strain DAY185; assay: in vitro antifungal activity (MIC) in the co-inoculation assay, turbidity read visually; type: cell-based; conditions: for MIC in vitro: co-inoculation assay, two-fold serial dilutions, C. albicans DAY185; for in vitro growth of C. albicans: screen / dose response
Procedure: (§1) The procedure for the co-inoculation antifungal compound screen were conducted as previously described (Okoli et al., PLoS ONE, 4:e7025 (2009); Tampakakis et al., Nat Protocols, 3:1925-1931 (2008)), using the C. albicans strain DAY185 (Davis et al., Infect Immun, 68:5953-5959 (2000)) and the C. elegans glp-4;sek-1 double mutant.
The determination of the lowest concentration of the selected compounds showing in vitro antifungal activity was accomplished by following the steps detailed in the co-inoculation assay, using two-fold serial dilutions of the test compounds.

C. albicans = assay: C. elegans-C. albicans co-inoculation assay, nematode survival; type: in vivo; conditions: for maximum nematode survival / promoting C. elegans survival compared with amphotericin B: dose response; for maximum nematode survival: C. albicans-infected C. elegans; for EC50 in vivo: dose that resulted in 50% survival of C. albicans-infected nematodes; for promoting C. elegans survival compared with amphotericin B: FIG. 2A
Procedure: as §1
(§2) This assay allows simultaneous assessment of a compound's potential toxicity and the ability to promote the survival of the nematode in the presence of C. albicans, including modes of action not traditionally considered in antifungal assays such as impeding a fungal virulence factor or promoting host immune response. We performed a screen of 2,560 natural products representing a fraction of the Analyiticon Discovery compound collection (ac-discovery.com) housed at the Broad Institute of Harvard and MIT (Cambridge, Mass.). […] These natural products identified in the primary screen were retested and confirmed (FIG. 1; Table 1). […] Moreover, although the antifungal effects of some of these saponins have been reported (Sata et al., Biosci Biotechnol Biochem, 62:1904-1911 (1998); Ohtani et al., Phytochem, 33:83-86 (1993)), their efficacy against Candida spp. has not been studied.
After confirmation of these hits, dose response experiments were conducted to determine the concentration that provided maximum nematode survival. The compounds conferred a range of nematode survival from 27% (compound A6) to 93% (compounds A2, A7, A24, and A25), however, with the exception of A6, all compounds conferred a nematode survival over 65% (FIG. 1).

C. elegans = assay: toxicity to the nematode in dose response experiments; conditions: for toxicity to the nematode: dose response experiments, higher concentrations
Description: as §2
Representatives of the saponins family are able to disrupt cellular membranes and the lytic activity on erythrocytes has been used as an assay for some saponins Francis et al., British Journal of Nutrition, 88:587-605 (2002)). This property is derived from the affinity of some saponins for binding cholesterol forming insoluble pores composed of the sterol and saponins (Bangham et al., Nature, 196:952-953(1962); Glauert et al., Nature, 196:953-955 (1962)). […] The dose-response experiments previously used to determine the EC50 and approximate the MIC can also indicate if the saponins maybe toxic to C. elegans and potentially to mammalian cells.

C. albicans strains = assay: MIC by standard CLSI microdilution protocol M27-A; type: cell-based
Procedure: Using the standard Clinical and Laboratory Standards Institute (CLSI) procedure, the in vitro MIC of these two compounds was determined on the following C. albicans strains: DAY185 (the standard strain used throughout the screen), two fluconazole-resistant strains of C. albicans, and an echinocandin-resistant strain of C. albicans (Table 2).
The minimal inhibitory concentration (MIC) was determined for strains DAY185, 98-145, 95-120 (White et al., Antimicrob Agents Chemother, 46:1704-1713 (2002)), and A15-10 (Garcia-Effron et al., Antimicrob Agents Chemother, 53:112-122 (2009)) spectrophotometrically using RPMI 1640 media (Mediatech, Inc.) following the standard CLSI microdilution protocol M27-A (National Committee for Clinical Laboratory Standards, Reference method for broth dilution susceptibility testing of yeasts. Tentative standard M27-A, Villanova, Pa. (1995)). Biofilm assays using identified compounds were conducted as previously described (Richard et al., Eukaryot Cell, 4:1493-1502 (2005)). The biofilm dry mass was determined by drying the silicone squares in a chemical hood, and weighing the resulting biofilm mass subtracting the previously weighed mass of the silicone square. Biofilm pictures were captured using a confocal laser microscope (TCS NT, Leica Microsystems). Cells were grown at 30° C., exposed to PS for 30 min, and then washed with PBS.

C. albicans isolates = assay: interaction between A16 and fluconazole (MIC); type: cell-based
Description: Since compound A16 was able to facilitate uptake of PS compounds, we investigated their ability to increase uptake to the commonly used antifungal agent fluconazole. As indicated above, fluconazole and saponins have different target sites, although they both function by altering the fungal cell membrane. […] One of the molecular mechanisms responsible for increased resistance to fluconazole for isolate 98-145 is a homozygous V437I point mutation in the ERG11 gene (White et al., Antimicrob Agents Chemother, 46:1704-1713 (2002)).

C. albicans DAY185 = conditions: at the concentrations used, yeast cells; cited from earlier work

In the case of `C[C@@H]1O[C@@H](O[C@H]2[C@H](O[C@H]3[C@H](O[C@H]4[C@H](O)[C@@H](O[C@@H]5O[C@H](CO)[C@@H](O)[C@H](O)[C@H]5O)[C@H](O[C@H]5CC[C@@]6(C)C(CC[C@]7(C)C6CC[C@]68OCC9(CCC(C)(C)CC96)[C@H](O)C[C@]87C)C5(C)C)O[C@@H]4C(=O)O)O[C@H](CO)[C@H](O)[C@@H]3O)O[C@@H](C)[C@H](O)[C@H]2O)[C@H](O)[C@H](O)[C@H]1O` (some centres unmarked) [A2, Sakurasosaponin], the MIC in vitro [1] is reported as 27.5 µg/mL (≈ 22 µM), the “in vitro growth of C. albicans” value [1] is reported as “completely inhibited” and the maximum nematode survival (C. albicans) is reported as 93%. For the same compound, the EC50 in vivo (C. albicans) was 55.1 µg/mL (≈ 44 µM).

`CC1(C)CC[C@]2(C(=O)O)CC[C@]3(C)C(=CCC4[C@@]5(C)CC[C@H](OC6O[C@H](CO)[C@@H](O)[C@H](O[C@@H]7O[C@H](CO)[C@@H](O)[C@H](O)[C@H]7O)[C@H]6O)C(C)(C)C5CC[C@]43C)[C@@H]2C1` (some centres unmarked) [A6, Arvensoside B] gave a maximum nematode survival (C. albicans) of 27%.

For `C/C=C(/C)C(=O)O[C@H]1[C@H](OC(=O)/C(C)=C\C)[C@]2(CO)[C@H](O)C[C@]3(C)C(=CCC4[C@@]5(C)CC[C@H](OC6OC(C(=O)O)C(O)C(OC7OC(C)C(O)C(OC8OC(CO)C(O)C(O)C8O)C7O)C6O)C(C)(C)C5CC[C@]43C)[C@@H]2CC1(C)C` (some centres unmarked) [A7], the MIC in vitro [1] was 3.1 µg/mL (≈ 2.72 µM), the “in vitro growth of C. albicans” value [1] was “completely inhibited” and the maximum nematode survival (C. albicans) was 93%. For the same compound, the “promoting C. elegans survival compared with amphotericin B” value (C. albicans) was “as effective as amphotericin B”, the EC50 in vivo (C. albicans) was 3.1 µg/mL (≈ 2.72 µM) and the “toxicity to the nematode” value (C. elegans) was “decrease in nematode survival; also recorded: maybe toxic to the nematode”.

Work on `CC1CC[C@@]2(OC1)O[C@H]1CC3C4C[C@@H](O)C5C[C@@H](O[C@@H]6O[C@H](CO)[C@H](O[C@@H]7O[C@H](CO)[C@@H](O)[C@H](O[C@@H]8OC[C@@H](O)[C@H](O)[C@H]8O)[C@H]7O[C@@H]7O[C@H](CO)[C@@H](O)[C@H](O)[C@H]7O)[C@H](O)[C@H]6O)CC[C@]5(C)C4CC[C@]3(C)[C@H]1[C@@H]2C` (some centres unmarked) [A8] yielded an MIC in vitro [1] of 5.8 µg/mL (≈ 5.52 µM) and an EC50 in vivo (C. albicans) of 23.1 µg/mL (≈ 22 µM).

Work on `CC1CC[C@@]2(OC1)O[C@H]1CC3C4CC=C5C[C@@H](O[C@@H]6O[C@H](CO)[C@@H](O[C@@H]7O[C@@H](C)[C@H](O)[C@@H](O)[C@H]7O)[C@H](O)[C@H]6O[C@@H]6O[C@@H](C)[C@H](O)[C@@H](O)[C@H]6O)CC[C@]5(C)C4CC[C@]3(C)[C@H]1[C@@H]2C` (some centres unmarked) [A11] yielded an MIC in vitro [1] of 38.9 µg/mL (≈ 44.8 µM) and an EC50 in vivo (C. albicans) of 38.9 µg/mL (≈ 44.8 µM).

For `CC1CC[C@@]2(OC1)O[C@H]1CC3C4CC=C5C[C@@H](O[C@@H]6O[C@H](CO)[C@@H](O[C@@H]7O[C@@H](C)[C@H](O)[C@@H](O)[C@H]7O[C@@H]7O[C@@H](C)[C@H](O)[C@@H](O)[C@H]7O)[C@H](O)[C@H]6O)CC[C@]5(C)C4CC[C@]3(C)[C@H]1[C@@H]2C` (some centres unmarked) [A20], the MIC in vitro [1] was 4.8 µg/mL (≈ 5.52 µM), the “promoting C. elegans survival compared with amphotericin B” value (C. albicans) was “as effective as amphotericin B” and the EC50 in vivo (C. albicans) was 4.8 µg/mL (≈ 5.52 µM).

Work on `CC1CC[C@@]2(OC1)O[C@H]1CC3C4C[C@@H](O)C5C[C@@H](O[C@@H]6O[C@H](CO)[C@H](O[C@@H]7O[C@H](CO)[C@@H](O)[C@H](O[C@@H]8OC[C@@H](O[C@@H]9O[C@H](CO)[C@@H](O)[C@H](O)[C@H]9O)[C@H](O)[C@H]8O)[C@H]7O[C@@H]7O[C@H](CO)[C@@H](O)[C@H](O)[C@H]7O)[C@H](O)[C@H]6O)CC[C@]5(C)C4CC[C@]3(C)[C@H]1[C@@H]2C` (some centres unmarked) [A24] yielded an MIC in vitro [1] of 13.3 µg/mL (≈ 11 µM), a maximum nematode survival (C. albicans) of 93% and an EC50 in vivo (C. albicans) of 13.3 µg/mL (≈ 11 µM). For the same compound, the “toxicity to the nematode” value (C. elegans) was “decrease in nematode survival” and the “concentrations showing evidence of toxicity to the worms” value (C. elegans; in vivo) was over 27000 ng/mL.

With `C/C=C(/C)C(=O)O[C@H]1CC(C)(C)C[C@H]2C3=CCC4[C@@]5(C)CC[C@H](O[C@@H]6O[C@H](C(=O)O)[C@@H](O[C@@H]7O[C@H](CO)[C@H](O)[C@H](O)[C@H]7O[C@@H]7O[C@H](CO)[C@@H](O)[C@H](O)[C@H]7O)[C@H](O)[C@H]6OC6O[C@@H](C)[C@H](O)[C@@H](O)[C@H]6O)C(C)(C)C5CC[C@@]4(C)[C@]3(C)[C@@H](OC(C)=O)[C@@H](O)[C@@]12COC(C)=O` (some centres unmarked) [A25] the MIC in vitro [1] was 28.7 µg/mL (≈ 22 µM), the “in vitro growth of C. albicans” value [1] was “completely inhibited” and the maximum nematode survival (C. albicans) was 93%. The EC50 in vivo (C. albicans) was 28.7 µg/mL (≈ 22 µM).

`C[C@@H]1[C@H](O)[C@@H](C)/C=C/C=C/C=C/C=C/C=C/C=C/C=C/[C@H](O[C@@H]2O[C@H](C)[C@@H](O)[C@H](N)[C@@H]2O)C[C@@H]2O[C@](O)(C[C@@H](O)C[C@@H](O)[C@H](O)CC[C@@H](O)C[C@@H](O)CC(=O)O[C@H]1C)C[C@H](O)[C@H]2C(=O)O` [Amphotericin B] gave an MIC in vitro [1] of 1.0 µg/mL (≈ 1.08 µM), a maximum nematode survival (C. albicans) of 93% and an EC50 in vivo (C. albicans) of 2.0 µg/mL (≈ 2.16 µM). The MIC (C. albicans strains; C. albicans DAY185) was 2 µg/mL (≈ 2.16 µM), the MIC (C. albicans strains; echinocandin-resistant strain A15) was 2 µg/mL (≈ 2.16 µM) and the MIC (C. albicans strains; fluconazole-resistant strain 95-120) was 2 µg/mL (≈ 2.16 µM). The MIC (C. albicans strains; fluconazole-resistant strain 98-145) was 2 µg/mL (≈ 2.16 µM).

For `CC[C@H](C)C[C@H](C)CCCCCCCCC(=O)N[C@H]1C[C@@H](O)[C@@H](NCCN)NC(=O)[C@@H]2[C@@H](O)CCN2C(=O)[C@H]([C@H](O)CCN)NC(=O)[C@H]([C@H](O)[C@@H](O)c2ccc(O)cc2)NC(=O)[C@@H]2C[C@@H](O)CN2C(=O)[C@H]([C@@H](C)O)NC1=O` [Caspofungin], the MIC (C. albicans strains; Candida albicans, C. albicans DAY185) was 2 µg/mL (≈ 1.83 µM), the MIC (C. albicans strains; Candida albicans, echinocandin-resistant strain A15) was 8 µg/mL (≈ 7.32 µM) and the MIC (C. albicans strains; Candida albicans, fluconazole-resistant strain 95-120) was 1 µg/mL (≈ 0.915 µM). The MIC (C. albicans strains; Candida albicans, fluconazole-resistant strain 98-145) was 1 µg/mL (≈ 0.915 µM).

`OC(Cn1cncn1)(Cn1cncn1)c1ccc(F)cc1F` [Fluconazole] showed an MIC (C. albicans strains; Candida albicans, C. albicans DAY185, read-out: MIC) of 2 µg/mL (≈ 6.53 µM), an MIC (C. albicans strains; Candida albicans, echinocandin-resistant strain A15, read-out: MIC) of 2 µg/mL (≈ 6.53 µM) and an MIC (C. albicans strains; Candida albicans, fluconazole-resistant strain 95-120, read-out: MIC) of 32 µg/mL (≈ 104 µM). The MIC (C. albicans strains; Candida albicans, fluconazole-resistant strain 98-145, read-out: MIC) was over 128 µg/mL, the MIC (C. albicans isolates; Candida albicans, C. albicans isolate DAY185, read-out: MIC of fluconazole alone) was 2 µg/mL and the “MIC of fluconazole in combination with A16” value (C. albicans isolates; DAY185, subinhibitory A16 (4 μg/mL)) was 1 µg/mL. For the same compound, the “sensitivity to fluconazole treatment in the presence of A16” value (C. albicans isolates; two C. albicans isolates with increased resistance to fluconazole) was “no increase in sensitivity”.

For `O=C1OC2(c3cc(I)c(O)c(I)c3Oc3c2cc(I)c(O)c3I)c2c(Cl)c(Cl)c(Cl)c(Cl)c21` [RB, Rose Bengal], the “PDI effect of photosensitizer alone” value (C. albicans DAY185) is listed as “no statistically significant PDI effect”.

For `C=Cc1c(C)c2cc3nc(c(CC(=O)O)c4[nH]c(cc5nc(cc1[nH]2)C(C)=C5CC)c(C)c4C(=O)O)[C@@H](CCC(=O)O)[C@@H]3C` [ce6, chlorin(e6)], the “PDI effect of photosensitizer alone” value (C. albicans DAY185) is given as “no statistically significant PDI effect”.
